Starred links: 1 amine or outer side, 2 acyl side, 3 side chain; linkers in the order of their positions; H or OH if unused. Positions of bridges follow the written chain, without caps; N, C: chain ends. Non-standard residues stand in square brackets, D forms with d. Residues, ends and D or L forms follow the SMILES beside them. Trp(2-yl) = O=C([C@H](Cc1c([*:3])[nH]c2ccccc12)N[*:1])[*:2]; Leu(4R-OH,5-OH) = C[C@](O)(CO)C[C@H](N)C(=O)O; cisHyp = O=C(O)[C@@H]1C[C@H](O)CN1
Key:
[1] = tested on: human A549 lung carcinoma cells; test: MTT assay (cytotoxicity); assay type: cell-based
Protocol: (§1) The A549 cell line was derived from lung carcinoma of a person. The H1299 cell line has a homozygous deletion of the P53 gene that was derived from a non-small cell lung adenocarcinoma tumor. MCF-7 cell line was derived from breast adenocarcinoma of a person. Hela cell line was derived from cervical carcinoma of a person. These cell lines are cultured in RPMI-1640 medium supplemented with 10% fetal bovine serum, 100 units/ml penicillin, 100 ug/ml streptomycin, and L-glutamine (0.03%, w/v), and cells were incubated at 37° C. and 5% CO2.
(§2) Briefly, the cells were plated in 96-well plates at a density of 1×10^4 cells/well for 16-20 hours. Then the cells were treated with pt-262 for 24 hours in serum-free RPMI-1640 medium. After drug treatment, the cells were washed with phosphate-buffered saline (PBS), and were re-cultured in complete RPMI-1640 medium for 48 hours. Subsequently, the medium was replaced and the cells were incubated with 500 ug/ml MTT in complete RPMI-1640 medium for 4 hours. The surviving cells were dissolved in DMSO after removing the MTT medium, and was measured at 565 nm using a ELISA reader.

[2] = tested on: Hela cervical carcinoma cells; test: MTT assay (cytotoxicity); assay type: cell-based, human
Protocol: as §1, §2

[3] = tested on: MCF-7 breast carcinoma cells; test: MTT assay (cytotoxicity); assay type: cell-based, human
Protocol: as §1, §2

[4] = tested on: A549 lung carcinoma cells; test: Cell growth assay; assay type: cell-based, human; conditions: 24 hours
Protocol: as §1
The cells were plated at a density of 5×10^5 cells per p100 Petri dish for 16-20 hours. Then the cells were treated with PT-262 of different concentrations for 24 hours. After drug treatment, the cells were washed with PBS and re-treated with trypsin, the cells were suspended and were counted by a hemocytometer.

[5] = tested on: A549 lung carcinoma cells; test: Cell cycle analysis (flow cytometer); assay type: cell-based, human; conditions: 24 hours
Protocol: as §1
(§3) The cells were plated at a density of 1×10^6 cells per p60 dish for 16-20 hours. Then the cells were treated with PT-262 for 24 hours. After drug treatment, the cells were washed with PBS and re-treated with trypsin, the cells were suspended and collected in a 15 ml centrifuge tube. After centrifugation at 1500 rpm for 5 minutes, the cells were fixed with 70% ethanol and stored at −20° C. for at least 2 hours. After being re-centrifuged at 1500 rpm for 5 minutes, the cell pellets were incubated with 4 ug/ml propidium iodine solution containing 1% Triton X-100 and 100 ug/ml RNase A for 30 minutes. The cell cycle was then analyzed by flow cytometer, and the percentage of cell cycle was quantified by ModFit Lt software (Ver. 2.0).

H1299 cells = test: Cell cycle analysis (flow cytometer); assay type: cell-based; conditions: 24 hours
Protocol: as §1, §3

Ras = test: Western blot; assay type: cell-based; conditions: cancer cells; after treatment with PT-262
Protocol: (§4) At the end of treatment, the cells were lysed in the cell extract buffer containing the protease inhibitors. Amounts of proteins in samples were subjected to electrophoresis using 10-12 sodium dodecyl sulfate-polyacrylamide gels. After electrophoretic transfer of proteins onto polyvinylidene difluoride (PVDF) membranes, the membranes were dipped in 5% degreased milk containing first antibody for 24 hours at 4° C. After being washed three times with TTBS buffer solution for 5-15 minutes at room temperature, the PVDF membranes are dipped in 5% degreased milk containing second antibody for 1-2 hours at room temperature. And then the membranes were re-washed three times with TTBS buffer solution for 5-15 minutes at room temperature. Finally, the protein bands were visualized using the enhanced chemiluminescence detection system.

caspase-3 = test: Western blot; assay type: cell-based; conditions: cancer cells
Protocol: as §4

cyclin B1 = test: Western blot; assay type: cell-based; conditions: cancer cells; 5-20 uM, 24 hours
Protocol: as §4

phospho-ERK = test: Western blot; assay type: cell-based; conditions: cancer cells; after treatment with PT-262
Protocol: as §4

phospho-cdc2 = test: Western blot; assay type: cell-based; conditions: cancer cells; 5-20 uM, 24 hours
Protocol: as §4

[6] = tested on: A549 lung carcinoma cells; test: Mitochondrial membrane potential (DiOC6, flow cytometer); assay type: cell-based, human; conditions: as the drug concentration increased, 24 hours
Protocol: The cells were cultured in 60-mm Petri dish at a density of 5×10^5 cells. Then the cells were treated with PT-262 of different concentrations for 24 hours. After drug treatment, the cells were washed with PBS and were trypsinized, the cells were suspended and were counted by a hemocytometer. The cells were collected by centrifugation, and the pellets were resuspended in 70% ethanol and stored at […]20° C. for at least 2 hours. After centrifugation, the pelts were incubated with 0.5 uM DiOC6 for 30 minutes. Then cell pellets were collected by centrifugation and resuspended in 0.5 ml ice-cold PBS. Finally, fluorescence intensities of DiOC6 were analyzed on a flow cytometer.

[7] = tested on: A549 lung carcinoma cells; test: Cytoskeleton staining and confocal microscope: cell elongation; assay type: cell-based, human
Protocol: (§5) The cells were cultured on coverslips kept in a p60 Petri dish, and the coverslips were kept in a CO2 incubator for 16-20 hours. After being treated with or without PT-262, the cells were fixed in 4% parafomaldehyde solution for 60 minutes at 37° C. Then the coverslips were washed three times with PBS. The F-actin and β-tubulin were stained with 20 U/ml BODIPY FL phallacidin and anti-β-tubulin Cy3 for 30 minutes at 37° C., respectively. Finally, the nuclei were stained with 2.5 ug/ml Hoechst 33258 for 30 minutes. And the cells were added with 80% Glycerin and sealed with nail varnish. The samples were examined under a Leica confocal laser scanning microscope.

F-actin = test: Cytoskeleton staining and confocal microscope: actin filament (F-actin); assay type: cell-based, human
Protocol: as §5

Microtubule = test: Cytoskeleton staining and confocal microscope: microtubule (β-tubulin); assay type: cell-based, human; conditions: for red fluorescence intensity of β-tubulin: A549, 50 nM, 24 hours; for microtubule polymerization: comparison of cytoskeleton inhibitors
Protocol: as §5

terminal cancer patients = conditions: cited from earlier work
[8] = Homo sapiens, treatment for 24 hours, at cell viability of 50%
[9] = lung carcinoma cells, comparison of cytoskeleton inhibitors
[10] = comparison of cytoskeleton inhibitors

SMILES: O=C1C(N2CCCCC2)=C(Cl)C(=O)c2ncccc21 [PT-262, 7-chloro-6-piperidin-1-yl-quinoline-5,8-dione]
- cell survival ratio ([1]; 1-10 uM, 24 hours): decreased as the concentration increased
- IC50 [1, 8]: 2 to 4 µM
- cell survival ratio ([2]; 1-10 uM, 24 hours): decreased as the concentration increased
- IC50 [2, 8]: 2 to 4 µM
- cell survival ratio ([3]; 1-10 uM, 24 hours): decreased as the concentration increased
- IC50 ([3]; Homo sapiens, MCF7, treatment for 24 hours, at cell viability of 50%): 2 to 4 µM
- growth arrest ([4]; 10 uM): almost completely induced
- cell growth ([4]; 5-10 uM): concentration-dependently inhibited
- G0/G1 fractions [5]: decreased
- G2/M fractions [5]: increased
- G0/G1 fractions (H1299 cells): decreased
- G2/M fractions (H1299 cells): increased
- expression level of Ras (Ras): decreased
- caspase-3 activation (caspase-3): noticeably induced
- levels of cyclin B1 protein (cyclin B1): noticeably decreased
- expression level of phospho-ERK (phospho-ERK): decreased
- levels of phospho-cdc2 protein (phospho-cdc2): noticeably decreased
- Mitochondrial membrane potential [6]: noticeably inhibited
- cell elongation ([7]; A549, 2 uM): induced
- cell length of some cells ([7]; A549, Leica confocal software): 160 um
- average cell length ([7]; A549, untreated 39.2 um, Leica confocal software): 65.3 um
- cell elongation [7, 9]: increased
- F-actin polymerization (F-actin; A549, 2 uM): induced
- actin polymerization (F-actin; [10]): induction

SMILES: COc1cc2c(c(OC)c1OC)-c1ccc(OC)c(=O)cc1[C@@H](NC(C)=O)CC2 [colchichine]
- cell elongation [7, 9]: didn't induce
- red fluorescence intensity of β-tubulin (Microtubule): reduced
- microtubule polymerization (Microtubule): inhibiting

SMILES: C=C1[C@@H](C)[C@H]2[C@H](Cc3ccccc3)NC(=O)[C@]23OC(=O)/C=C/[C@H](O)CCC[C@@H](C)C/C=C/[C@H]3[C@@H]1O [cytochalasin B, reference compound]
- cell elongation [7, 9]: didn't induce
- actin polymerization (F-actin; [10]): prevented

SMILES: CC(=O)O[C@H]1C(=O)[C@@]2(C)[C@H]([C@H](OC(=O)c3ccccc3)[C@]3(O)C[C@H](OC(=O)[C@H](O)[C@@H](NC(=O)c4ccccc4)c4ccccc4)C(C)=C1C3(C)C)[C@]1(OC(C)=O)CO[C@@H]1C[C@@H]2O [paclitaxel]
- cell elongation [7, 9]: didn't induce
- red fluorescence intensity of β-tubulin (Microtubule): increased
- microtubule polymerization (Microtubule): induced
- suppression rate (terminal cancer patients; 40 terminal cancer patients): 30%
- patients reduced in tumor size by over 50% (terminal cancer patients; of 40 terminal cancer patients): 12

SMILES: C[C@@H]1NC(=O)[C@H](C[C@@](C)(O)CO)NC(=O)[C@@H]2Cc3c([nH]c4ccccc34)SC[C@H](NC(=O)[C@@H]([C@H](C)O)NC1=O)C(=O)N1C[C@@H](O)C[C@H]1C(=O)N[C@@H](C)C(=O)N2 [phalloidin] (cyclo(A[dT]C[cisHyp]A[Trp(2-yl)][Leu(4R-OH,5-OH)]); thioether 3-6)
- cell elongation ([7]; A549, 24 hours): caused the cell elongation
- green fluorescence intensity of F-actin (F-actin; A549, 24 hours): increased
- actin depolymerization (F-actin; [10]): inhibit

Reference: patent publication US20100093794A1, “Use of a Compound in Obtaining Cytoskeleton Blockage and Cell Elongation” (priority 2006, published 2010)
